From patent US10030027B2, “Soluble guanylate cyclase stimulators” (MERCK SHARP & DOHME CORP., priority 2015, dated 2018)
pEC50, pKi: −log10 of the molar value.

Key:
sGC α1/β1 heterodimer = sGC α1/β1 heterodimer (Homo sapiens (Human), UniProt Q02108+Q02153); test: Cell-based sGC functional assay (cyclic GMP assay for sGC activator: CASA assay); set-up: % Activation: concentration or dose not given beside the values; conditions: CHO-K1/sGC cells; for Emax: CHO-K1, activity expressed as percentage of compound A (standard), read-out: % Activation; for pEC50: inflection point, 4P fit, read-out: IP; for % Activation: activity expressed as percentage of compound A (standard)
Outline: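 CHO-K1 cells stably expressing sGC α1/β1 were pre-incubated with or without 1 μM DETA-NO (30 min, 25 °C), then exposed to compounds for 1 hr at 37 °C with 0.5 mM IBMX. Intracellular cGMP was read by HTRF and expressed as a percentage of a reference heme-dependent activator's maximum.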

[1] = molecular target: human recombinant sGC enzyme (Homo sapiens (Human), UniProt Q02108+Q02153); test: Size Exclusion Chromatography (SEC) competition binding assay using [3H] Ex-77B as the radioligand; conditions: [3H] Ex-77B radioligand, 24 hours at 37° C.
Outline: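 Recombinant human sGC binding measured by competition against tritiated Ex-77B radioligand, with non-specific binding defined by 1 μM unlabeled Ex-77B.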

| Compound | Emax (sGC α1/β1 heterodimer) | pEC50 (sGC α1/β1 heterodimer) | pKi [1] | % Activation (sGC α1/β1 heterodimer) |
| --- | --- | --- | --- | --- |
| CC(C)(Cc1csc([C@]2(C)C(=O)Nc3nc(-c4nn(Cc5ccc(F)cc5)c5cc(Cl)ccc45)nc(N)c32)n1)C(=O)O [Example 174A, (S)-3-(2-{4-amino-2-[6-chloro-1-(4-fluorobenzyl)-1H-indazol-3-yl]-5-methyl-6-oxo-6,7-dihydro-5H-pyrrolo[2,3-d]pyrimidin-5-yl}-1,3-thiazol-4-yl)-2,2-dimethyl-propanoic acid] | 121% | 6.17 | 9.76 |  |
| CC1CCC(Cn2nc(-c3nc(N)c4c(n3)NC(=O)C4(C)c3nc(CC(C)(C)C(=O)O)co3)c3ccccc32)CC1 (single isomer, unassigned) [Example 231AB, 3-{2-[4-amino-5-methyl-2-{1-[4-methylcyclo-hexylmethyl]-1H-indazol-3-yl}-6-oxo-6,7-dihydro-5H-pyrrolo[2,3-d]pyrimidin-5-yl]-1,3-oxazol-4-yl}-2,2-dimethyl-propanoic acid] |  | 6.28 | 10.06 | 127.9% |
| CC1(c2nc(-c3ccc(C(=O)O)cc3)cs2)C(=O)Nc2nc(-c3nn(Cc4ccccc4F)c4cc(Cl)ccc34)nc(N)c21 (stereo not drawn) [Example 165A, 4-(2-{4-amino-2-[6-chloro-1-(2-fluorobenzyl)-1H-indazol-3-yl]-5-methyl-6-oxo-6,7-dihydro-5H-pyrrolo[2,3-d]pyrimidin-5-yl}-1,3-thiazol-4-yl) benzoic acid] | 110% | 7.32 | 10.09 |  |
| CC1(c2ccc(/C=C/C(=O)O)cc2)C(=O)Nc2nc(-c3nn(Cc4ccccc4F)c4ncccc34)nc(N)c21 (stereo not drawn) [Example 217A, (2E)-3-(4-{4-amino-2-[1-(2-fluorobenzyl)-1H-pyrazolo[3,4-b]pyridin-3-yl]-5-methyl-6-oxo-6,7-dihydro-5H-pyrrolo[2,3-d]pyrimidin-5-yl}phenyl)prop-2-enoic acid] | 124% | 5.85 | 10.17 |  |
| Cc1ccc2c(-c3nc(N)c4c(n3)NC(=O)[C@@]4(C)c3ccc(CCC(=O)O)cc3)nn(CCCC(F)(F)F)c2n1 [Example 20B, (S)-3-(4-{4-amino-5-methyl-2-[6-methyl-1-(4,4,4-trifluorobutyl)-1H-pyrazolo[3,4-b]pyridin-3-yl]-6-oxo-6,7-dihydro-5H-pyrrolo[2,3-d]pyrimidin-5-yl}phenyl)propanoic acid] | 88% | 5.66 | 8.35 |  |
| CC(C)(Cc1csc([C@]2(C)C(=O)Nc3nc(-c4nn(CC5CCCCO5)c5ccccc45)nc(N)c32)n1)C(=O)O (single isomer, unassigned) [Example 229AB] |  | 6.75 | 9.62 | 72.9% |
| CC(C)(Cc1ccc(C2(C)C(=O)Nc3nc(-c4nn(CCCC(F)(F)F)c5cc(Cl)ccc45)nc(N)c32)cc1)C(=O)O (stereo not drawn) [Example 42B, 3-(4-{4-amino-2-[6-chloro-1-(4,4,4-trifluorobutyl)-1H-indazol-3-yl]-5-methyl-6-oxo-6,7-dihydro-5H-pyrrolo[2,3-d]pyrimidin-5-yl}phenyl)-2,2-dimethylpropanoic acid] | 84% | 5.98 | 9.02 |  |
| CC(C)(Cc1coc(C2(C)C(=O)Nc3nc(-c4nn(Cc5c(F)cccc5F)c5cc(Cl)ccc45)nc(N)c32)n1)C(=O)O (stereo not drawn) [Example 182A, 3-(2-{4-amino-2-[6-chloro-1-(2,6-difluorobenzyl)-1H-indazol-3-yl]-5-methyl-6-oxo-6,7-dihydro-5H-pyrrolo[2,3-d]pyrimidin-5-yl}-1,3-oxazol-4-yl)-2,2-dimethyl-propanoic acid] | 92% | 6.62 | 9.91 |  |
| CC1(c2ccc(CCCC(=O)O)cc2)C(=O)Nc2nc(-c3nn(CCC(F)(F)C(F)(F)F)c4ncccc34)nc(N)c21 (stereo not drawn) [Example 116A, 4-(4-{4-amino-5-methyl-6-oxo-2-[1-(3,3,4,4,4-pentafluorobutyl)-1H-pyrazolo[3,4-b]pyridin-3-yl)-6,7-dihydro-5H-pyrrolo[2,3-d]pyrimidin-5-yl}phenyl)butanoic acid] | 78% | 6.22 | 9.53 |  |
| CC1(c2nc(C[C@H](N)C(=O)O)cs2)C(=O)Nc2nc(-c3nn(Cc4ccccc4F)c4cc(Cl)ccc34)nc(N)c21 (stereo partly drawn) [Example 234B, (S)-3-(2-{4-Amino-2-[6-chloro-1-(2-fluorobenzyl)-1H-indazol-3-yl]-5-methyl-6-oxo-6,7-dihydro-5H-pyrrolo[2,3-d]pyrimidin-5-yl}-1,3-thiazol-4-yl)-D-alanine] | 135% | 6.58 | 9.02 |  |
| CC(C)(Cn1cc(C2(C)C(=O)Nc3nc(-c4nn(Cc5ccccc5F)c5ncccc45)nc(N)c32)cn1)C(=O)O (stereo not drawn) [Example 145A, 3-(4-{4-amino-2-[1-(2-fluoro-benzyl)-1H-pyrazolo [3,4-b]pyridin-3-yl]-5-methyl-6-oxo-6,7-dihydro-5H-pyrrolo[2,3-d]pyrimidin-5-yl}-1H-pyrazol-1-yl)-2,2-dimethyl-propanoic acid] | 82.9% | 6.41 | 9.52 |  |
| CC(C)(Cc1csc([C@]2(C)C(=O)Nc3nc(-c4nn(CC5CCCCO5)c5ncccc45)nc(N)c32)n1)C(=O)O (single isomer, unassigned) [Example 123AA] | 79% | 6.06 | 8.91 |  |
| CC(C)(Cc1csc([C@]2(C)C(=O)Nc3nc(-c4nn(CC5CCCCC5)c5cc(F)ccc45)nc(N)c32)n1)C(=O)O [Example 201A, (S)-3-(2-{4-amino-2-[1-(cyclohexyl-methyl)-6-fluoro-1H-indazol-3-yl]-5-methyl-6-oxo-6,7-dihydro-5H-pyrrolo[2,3-d]pyrimidin-5-yl}-1,3-thiazol-4-yl)-2,2-dimethyl-propanoic acid] | 91.2% | 7.41 | 9.82 |  |
| CC(C)(Cc1coc(C2(C)C(=O)Nc3nc(-c4nn(CC5CCCCC5)c5ccccc45)nc(N)c32)n1)C(=O)O (stereo not drawn) [Example 228A, 3-(2-{4-amino-2-[1-(cyclohexyl-methyl)-1H-indazol-3-yl]-5-methyl-6-oxo-6,7-dihydro-5H-pyrrolo[2,3-d]pyrimidin-5-yl}-1,3-oxazol-4-yl)-2,2-dimethyl-propanoic acid] | 95% | 7.19 | 10.10 |  |
| CCCCn1nc(-c2nc(N)c3c(n2)NC(=O)C3(C)c2cn(CCC(=O)O)nn2)c2ccc(Cl)cc21 (stereo not drawn) [Example 36B, 3-{4-[4-amino-2-(1-butyl-6-chloro-1H-indazol-3-yl)-5-methyl-6-oxo-6,7-dihydro-5H-pyrrolo[2,3-d]pyrimidin-5-yl]-1H-1,2,3-triazol-1-yl}propanoic acid] | 105% | 6.04 | 9.04 |  |
| CC(C)(CCc1coc(C2(C)C(=O)Nc3nc(-c4nn(Cc5ccccc5F)c5cc(F)ccc45)nc(N)c32)n1)C(=O)O (stereo not drawn) [Example 193B, 4-(2-{4-amino-2-[6-fluoro-1-(2-fluorobenzyl)-1H-indazol-3-yl]-5-methyl-6-oxo-6,7-dihydro-5H-pyrrolo[2,3-d]pyrimidin-5-yl}-1,3-oxazol-4-yl)-2,2-dimethyl-butanoic acid] | 89.2% | 7.16 | 10.28 |  |
| CC(C)(Cn1cc(C2(C)C(=O)Nc3nc(-c4nn(Cc5ccccc5F)c5cc(Cl)ccc45)nc(N)c32)cn1)C(=O)O (stereo not drawn) [Example 171A, 3-(4-{4-amino-2-[6-chloro-1-(2-fluorobenzyl)-1H-indazol-3-yl]-5-methyl-6-oxo-6,7-dihydro-5H-pyrrolo[2,3-d]pyrimidin-5-yl}-1H-pyrazol-1-yl)-2,2-dimethyl-propanoic acid] | 135% | 5.91 | 10.03 |  |
| CC(C)(CCc1coc(C2(C)C(=O)Nc3nc(-c4nn(Cc5cccc(F)c5)c5cc(Cl)ccc45)nc(N)c32)n1)C(=O)O (stereo not drawn) [Example 177B, 4-(2-{4-amino-2-[6-chloro-1-(3-fluorobenzyl)-1H-indazol-3-yl]-5-methyl-6-oxo-6,7-dihydro-5H-pyrrolo[2,3-d]pyrimidin-5-yl}-1,3-oxazol-4-yl)-2,2-dimethyl-butanoic acid] | 126% | 6.45 | 9.93 |  |
| CC(C)(Cc1csc([C@]2(C)C(=O)Nc3nc(-c4nn(Cc5ccccc5F)c5cc(Cl)ccc45)nc(N)c32)n1)c1nn[nH]n1 [Example 238A, (S)-4-amino-2-[6-chloro-1-(2-fluorobenzyl)-1H-indazol-3-yl]-5-methyl-5-{4-[2-methyl-2-(2H-tetrazol-5-yl)propyl]-1,3-thiazol-2-yl}-5,7-dihydro-6H-pyrrolo[2,3-d] pyrimidin-6-one] | 99.5% | 6.22 | 10.02 |  |
| CC(C)(Cc1coc(C2(C)C(=O)Nc3nc(-c4nn(CC5CCCC5)c5ncccc45)nc(N)c32)n1)C(=O)O (stereo not drawn) [Example 154A, 3-(2-{4-amino-2-[1-(cyclopentyl-methyl)-1H-pyrazolo[3,4-b]pyridin-3-yl]-5-methyl-6-oxo-6,7-dihydro-5H-pyrrolo[2,3-d]pyrimidin-5-yl}-1,3-oxazol-4-yl)-2,2-dimethyl-propanoic acid] | 104% | 6.24 | 10.04 |  |
| CC(C)(Cc1csc([C@]2(C)C(=O)Nc3nc(-c4nn(Cc5cccc(F)c5)c5cc(F)ccc45)nc(N)c32)n1)C(=O)O [Example 194A, (S)-3-(2-{4-amino-2-[6-fluoro-1-(3-fluorobenzyl)-1H-indazol-3-yl]-5-methyl-6-oxo-6,7-dihydro-5H-pyrrolo[2,3-d]pyrimidin-5-yl}-1,3-thiazol-4-yl)-2,2-dimethyl-propanoic acid] | 128% | 7.14 | 10.39 |  |
